From patent US11339419B2, “Scavenger protein(s) for improved preservation of analyte detection sensor(s) and method(s) of use thereof” (Siemens Healthcare Diagnostics Inc., priority 2017, dated 2022)
Where “and” joins values, the source holds several entries; their conditions need not be identical. Equal values may be shown once.

Key:
Assay type in all cases: biochemical
[1] = test system: sarcosine oxidase (BBI Solutions); experiment: BBI Solutions Sarcosine Oxidase Enzyme Absorbance with BSA and MIT; settings: 0 mg/mL BSA; for Sarcosine Oxidase Enzyme Absorbance, MEAN of 1-5 / Sarcosine Oxidase Enzyme Absorbance, solutions 1-5: 37° C.
Method: (§1) Tables 1-4 depict aqueous solutions comprising varying concentrations of BSA (at concentrations of 0 mg/mL, 5 mg/mL, 25 mg/mL, and 50 mg/mL), varying concentrations of MIT (at concentrations of 50 parts per million and 100 parts per million) or Proclin™ 300 (at concentrations of 0.7% and 1.4%) biocides over a particular time period (measurements were taken at days 0, 4, and 14 after exposure of the enzyme(s) to the aqueous solutions) and the associated enzyme absorbance measurements for sarcosine oxidase (commercially offered for sale by BBI Solutions and Toyobo). Absorbance measurements of the sarcosine oxidase enzyme(s) were taken via spectrophotometer for each aqueous solution (represented as columns 1-5 in Tables 1-4—column 6 is a blank), the absorbance being directly proportional to the enzyme activity being measured-which for Tables 1-4 is sarcosine oxidase enzyme activity. Accordingly, the higher the absorbance measurement, the higher the enzyme activity of sarcosine oxidase. Columns 7-11 represent five replicate readings in which the aqueous solution only contains BSA (i.e., there is no biocide(s) present in the aqueous solution). In addition, the mean values, standard deviations, and coefficients of variation are also presented for the enzyme activity/absorbance of each aqueous solution. All measurements were taken at 37° C.
As depicted below in Table 1, sarcosine oxidase (commercially offered for sale by BBI Solutions) enzyme activity is measured against various concentrations of MIT (biocide) and BSA (scavenger protein) over a period of 14 days (with absorbance measurements taken at 0, 4, and 14 days) for five different aqueous solutions (represented as columns 1-5—column 6 is a blank).

[2] = test system: sarcosine oxidase (Toyobo); experiment: Toyobo Sarcosine Oxidase Enzyme Absorbance with BSA and MIT; settings: 0 mg/mL BSA; for Sarcosine Oxidase Enzyme Absorbance, MEAN of 1-5 / Sarcosine Oxidase Enzyme Absorbance, solutions 1-5: 37° C.
Method: as §1
As depicted below in Table 2, sarcosine oxidase (commercially offered for sale by Toyobo) enzyme activity is measured against various concentrations of MIT (biocide) and BSA (scavenger protein) over a period of 14 days (with absorbance measurements taken at 0, 4, and 14 days) for five different aqueous solutions (represented as columns 1-5-column 6 is a blank).

[3] = test system: creatininase (Toyobo); experiment: Toyobo Creatininase Enzyme Absorbance with BSA and MIT; settings: 0 mg/mL BSA
From the text: Absorbance measurements of the creatininase enzyme(s) were taken via spectrophotometer for each aqueous solution (represented as columns 1-5 in Tables 5-8—column 6 is a blank), the absorbance being directly proportional to the enzyme activity being measured-which for Tables 5-8 is creatininase enzyme activity. Accordingly, the higher the absorbance measurement, the higher the enzyme activity of creatininase. Columns 7-11 represent five replicate readings in which the solution only contains BSA (i.e., there is no biocide(s) present in the solution). In addition, the mean values, standard deviations, and coefficients of variation are all presented for the enzyme activity/absorbance of each aqueous solution. All measurements were taken at 37° C.
As depicted in Table 6, creatininase (commercially offered for sale by Toyobo) enzyme activity is measured against various concentrations of MIT (biocide) and BSA (scavenger protein) over a period of 14 days (with absorbance measurement taken at 0, 4, and 14 days) for five different aqueous solutions (represented as columns 1-5—column 6 is a blank).

[4] = test system: creatininase (BBI Solutions); experiment: BBI Solutions Creatininase Enzyme Absorbance with BSA and MIT; settings: 0 mg/mL BSA
Method: Table 5-8 depict aqueous solutions comprising varying concentrations of BSA (at concentrations of 0 mg/mL, 5 mg/mL, 25 mg/mL, and 50 mg/mL), varying concentrations of MIT (at concentrations of 50 parts per million and 100 parts per million) or Proclin™ 300 (at concentrations of 0.7% and 1.4%) biocide over a particular time period (measurements were taken at days 0, 4, and 14 after exposure of the enzyme(s) to the particular aqueous solutions) and the associated enzyme absorbance measurements for creatininase (commercially offered for sale by BBI Solutions and Toyobo). Absorbance measurements of the creatininase enzyme(s) were taken via spectrophotometer for each aqueous solution (represented as columns 1-5 in Tables 5-8—column 6 is a blank), the absorbance being directly proportional to the enzyme activity being measured-which for Tables 5-8 is creatininase enzyme activity. Accordingly, the higher the absorbance measurement, the higher the enzyme activity of creatininase. Columns 7-11 represent five replicate readings in which the solution only contains BSA (i.e., there is no biocide(s) present in the solution). In addition, the mean values, standard deviations, and coefficients of variation are all presented for the enzyme activity/absorbance of each aqueous solution. All measurements were taken at 37° C.
As depicted in Table 5, creatininase (commercially offered for sale by BBI Solutions) enzyme activity is measured against various concentrations of MIT (biocide) and BSA (scavenger protein) over a period of 14 days (with absorbance measurement taken at 0, 4, and 14 days) for five different aqueous solutions (represented as columns 1-5—column 6 is a blank).

Cn1sccc1=O [MIT, methylisothiazolinone, reference compound]
% Bias ([1]; Day 0, 50 ppm MIT vs no MIT): 3.8%
Sarcosine Oxidase Enzyme Absorbance, MEAN of 1-5 ([1]; Day 0, 50 ppm MIT): 1.43
Sarcosine Oxidase Enzyme Absorbance, solutions 1-5 ([1]; Day 0, 50 ppm MIT): 1.463 and 1.459 and 1.507 and 1.474 and 1.477
% Bias ([1]; Day 0, 100 ppm MIT vs no MIT): 1.3%
Sarcosine Oxidase Enzyme Absorbance, MEAN of 1-5 ([1]; Day 0, 100 ppm MIT): 1.39
Sarcosine Oxidase Enzyme Absorbance, solutions 1-5 ([1]; Day 0, 100 ppm MIT): 1.446 and 1.428 and 1.422 and 1.427 and 1.423
% Bias ([1]; Day 4, 50 ppm MIT vs no MIT): 1.5%
Sarcosine Oxidase Enzyme Absorbance, MEAN of 1-5 ([1]; Day 4, 50 ppm MIT): 1.35
Sarcosine Oxidase Enzyme Absorbance, solutions 1-5 ([1]; Day 4, 50 ppm MIT): 1.388 and 1.397 and 1.401 and 1.346 and 1.368
% Bias ([1]; Day 4, 100 ppm MIT vs no MIT): 2.0%
Sarcosine Oxidase Enzyme Absorbance, MEAN of 1-5 ([1]; Day 4, 100 ppm MIT): 1.35
Sarcosine Oxidase Enzyme Absorbance, solutions 1-5 ([1]; Day 4, 100 ppm MIT): 1.38 and 1.379 and 1.384 and 1.353
% Bias ([1]; Day 14, 50 ppm MIT vs no MIT): −8.8%
Sarcosine Oxidase Enzyme Absorbance, MEAN of 1-5 ([1]; Day 14, 50 ppm MIT): 0.24
Sarcosine Oxidase Enzyme Absorbance, solutions 1-5 ([1]; Day 14, 50 ppm MIT): 0.272 and 0.267 and 0.265 and 0.283 and 0.286
% Bias ([1]; Day 14, 100 ppm MIT vs no MIT): −34.1%
Sarcosine Oxidase Enzyme Absorbance, MEAN of 1-5 ([1]; Day 14, 100 ppm MIT): 0.18
Sarcosine Oxidase Enzyme Absorbance, solutions 1-5 ([1]; Day 14, 100 ppm MIT): 0.218 and 0.215 and 0.21 and 0.214 and 0.219
% Bias ([2]; Day 0, 50 ppm MIT vs no MIT): 0.8%
Sarcosine Oxidase Enzyme Absorbance, MEAN of 1-5 ([2]; Day 0, 50 ppm MIT): 1.42
Sarcosine Oxidase Enzyme Absorbance, solutions 1-5 ([2]; Day 0, 50 ppm MIT): 1.463 and 1.462 and 1.447 and 1.446
% Bias ([2]; Day 0, 100 ppm MIT vs no MIT): 2.6%
Sarcosine Oxidase Enzyme Absorbance, MEAN of 1-5 ([2]; Day 0, 100 ppm MIT): 1.44
Sarcosine Oxidase Enzyme Absorbance, solutions 1-5 ([2]; Day 0, 100 ppm MIT): 1.491 and 1.45 and 1.5 and 1.478 and 1.464
% Bias ([2]; Day 4, 50 ppm MIT vs no MIT): 101.5%
Sarcosine Oxidase Enzyme Absorbance, MEAN of 1-5 ([2]; Day 4, 50 ppm MIT): 0.25
Sarcosine Oxidase Enzyme Absorbance, solutions 1-5 ([2]; Day 4, 50 ppm MIT): 0.277 and 0.275 and 0.272 and 0.283 and 0.282
% Bias ([2]; Day 4, 100 ppm MIT vs no MIT): 115.9%
Sarcosine Oxidase Enzyme Absorbance, MEAN of 1-5 ([2]; Day 4, 100 ppm MIT): 0.27
Sarcosine Oxidase Enzyme Absorbance, solutions 1-5 ([2]; Day 4, 100 ppm MIT): 0.302 and 0.304 and 0.298 and 0.317
% Bias ([2]; Day 14, 50 ppm MIT vs no MIT): 7.4%
Sarcosine Oxidase Enzyme Absorbance, MEAN of 1-5 ([2]; Day 14, 50 ppm MIT): 0.11
Sarcosine Oxidase Enzyme Absorbance, solutions 1-5 ([2]; Day 14, 50 ppm MIT): 0.154 and 0.153 and 0.151 and 0.159 and 0.16
% Bias ([2]; Day 14, 100 ppm MIT vs no MIT): 8.8%
Sarcosine Oxidase Enzyme Absorbance, MEAN of 1-5 ([2]; Day 14, 100 ppm MIT): 0.13
Sarcosine Oxidase Enzyme Absorbance, solutions 1-5 ([2]; Day 14, 100 ppm MIT): 0.163 and 0.176 and 0.168 and 0.172
% Bias ([3]; Day 0, 50 ppm MIT vs no MIT): 10.4%
Creatininase Enzyme Absorbance ([3]; Day 0, 50 ppm MIT): 0.846 and 0.775 and 0.735 and 0.721 and 0.713
MEAN ([3]; Day 0, 50 ppm MIT): 0.56
% Bias ([3]; Day 0, 100 ppm MIT vs no MIT): 3.8%
Creatininase Enzyme Absorbance ([3]; Day 0, 100 ppm MIT): 0.937 and 0.871 and 0.866 and 0.827 and 0.836
MEAN ([3]; Day 0, 100 ppm MIT): 0.67
% Bias ([3]; Day 4, 50 ppm MIT vs no MIT): 12.2%
Creatininase Enzyme Absorbance ([3]; Day 4, 50 ppm MIT): 0.777 and 0.754 and 0.767 and 0.743 and 0.77
MEAN ([3]; Day 4, 50 ppm MIT): 0.55
% Bias ([3]; Day 4, 100 ppm MIT vs no MIT): 9.8%
Creatininase Enzyme Absorbance ([3]; Day 4, 100 ppm MIT): 0.745 and 0.768 and 0.763 and 0.748 and 0.792
MEAN ([3]; Day 4, 100 ppm MIT): 0.55
% Bias ([3]; Day 14, 50 ppm MIT vs no MIT): 9.3%
Creatininase Enzyme Absorbance ([3]; Day 14, 50 ppm MIT): 0.828 and 0.801 and 0.702 and 0.794 and 0.79
MEAN ([3]; Day 14, 50 ppm MIT): 0.55
% Bias ([3]; Day 14, 100 ppm MIT vs no MIT): 5.1%
Creatininase Enzyme Absorbance ([3]; Day 14, 100 ppm MIT): 0.794 and 0.774 and 0.784 and 0.73 and 0.78
MEAN ([3]; Day 14, 100 ppm MIT): 0.54
% Bias ([4]; Day 0, 50 ppm MIT vs no MIT): 4.1%
Creatininase Enzyme Absorbance ([4]; Day 0, 50 ppm MIT): 0.663 and 0.662 and 0.668 and 0.62 and 0.649
MEAN ([4]; Day 0, 50 ppm MIT): 0.45
% Bias ([4]; Day 0, 100 ppm MIT vs no MIT): 0.7%
Creatininase Enzyme Absorbance ([4]; Day 0, 100 ppm MIT): 0.765 and 0.721 and 0.731 and 0.712 and 0.723
MEAN ([4]; Day 0, 100 ppm MIT): 0.53
% Bias ([4]; Day 4, 50 ppm MIT vs no MIT): 3.3%
Creatininase Enzyme Absorbance ([4]; Day 4, 50 ppm MIT): 0.654 and 0.633 and 0.52 and 0.638
MEAN ([4]; Day 4, 50 ppm MIT): 0.41
% Bias ([4]; Day 4, 100 ppm MIT vs no MIT): −2.3%
Creatininase Enzyme Absorbance ([4]; Day 4, 100 ppm MIT): 0.616 and 0.604 and 0.597 and 0.523
MEAN ([4]; Day 4, 100 ppm MIT): 0.38
% Bias ([4]; Day 14, 50 ppm MIT vs no MIT): −6.5%
Creatininase Enzyme Absorbance ([4]; Day 14, 50 ppm MIT): 0.732 and 0.689 and 0.701 and 0.686 and 0.725
MEAN ([4]; Day 14, 50 ppm MIT): 0.44
% Bias ([4]; Day 14, 100 ppm MIT vs no MIT): 7.0%
Creatininase Enzyme Absorbance ([4]; Day 14, 100 ppm MIT): 0.755 and 0.699 and 0.714 and 0.707 and 0.716
MEAN ([4]; Day 14, 100 ppm MIT): 0.45
